In US20070183995A1, “Compounds useful as agonists of A2A adenosine receptors, cosmetic compositions with A2A agonists and a method for using the same” (Conopco, Inc., d/b/a Unilever, priority 2006, published 2007):

Tested on: Melanoderm cultures (melanogenesis)
Test: Melanoderm human skin equivalent lightening test (Hunter Lab L value)
Format: cell-based
Settings: for Average L Value / L Value Range: 3 micromolar in media, dosed 10 times in 3 weeks, Hunter Lab L value, Minolta CR-10 chromameter; for Average L Value: averaged; for L Value Range: triplicate; for ΔL: difference in average Hunter Lab L value, treated vs untreated control cultures, 3 micromolar, 3 weeks
Source text: As used herein, ΔL is defined to mean the difference in Hunter Lab L values when comparing three, three (3) week old Mattek Melanoderm cultures that have not been treated with a composition comprising an agonist of A2A receptors to three, three (3) week old Mattek melanoderm cultures that have been treated with a composition comprising an agonist of A2A receptors wherein treated means: • (a) placing the melanoderm culture within a six (6) well tissue culture dish and set about 0.3 cm off of the tissue culture dish; • (b) subjecting the melanoderm culture to a 3 micromolar composition having an agonist of A2A adenosine receptors, the composition being one prepared from a 10 millimolar solution of A2A agonist and carrier (e.g., dimethyl sulfoxide) having been diluted with Dulbecco's Modified Eagle Media; and • (c) comparing the treated and untreated cultures by obtaining average L values for each with a Minolta CR-10 chromameter.
Commercially available human skin equivalents (Melanoderm from Mattek) were obtained for testing the impact of agonists of A2A adenosine receptors on melanogenesis. Solutions having a final concentration of three (3) micromolar were prepared from a 10 millimolar dimethyl sulfoxide stock solution and dosed ten (10) times in a three (3) week period into the media of the melanoderm cultures. The media consisted of commercially available basal Dulbecco's Modified Eagles media, prepared and treated in the manner set forth in the manufacture's instructions. For long term maintenance of the Melanoderms, the basal media was supplemented with bFGF and alpha MSH to stimulate melanocyte growth and melanogenesis. Each treatment condition was done in triplicate and three (3) sets were made for each treatment, as well as for a control (culture not treated with the agonist). The cultures were maintained at a temperature of about 37° C. and stored in a humidified, 5% CO2 incubator during the dosing period, but removed while being dosed.
After a three (3) week period, Hunter lab L value readings were taken for each condition (with a.Minolta CR-10 chromameter) and then averaged.

| Compound | Average L Value | L Value Range | ΔL |
| --- | --- | --- | --- |
| Nc1nc(Nc2ccccc2)nc2c1ncn2[C@@H]1O[C@H](CO)[C@@H](O)[C@H]1O [Agonist 2, phenylaminoadenosine] | 43.8 | 43.2-44.2 | 5.2 |
| CCNC(=O)[C@H]1O[C@@H](n2cnc3c(N)nc(NCCc4ccc(CCC(=O)O)cc4)nc32)[C@H](O)[C@@H]1O [Agonist 1, 2-para(2-carboxyethyl)phenethylamino-5′-N-ethyl carboxamido adenosine] | 31.9 | 30.3-33.3 | 1.7 |
